Laboratory results as given in US6518317B1, “Antiviral agents” (priority 1997, dated 2003).

Tests used:
Ad5 dlX [an adenovirus] [1] = test: Adenovirus hexon protein in HeLa cells treated with cyclopentenone before infection; assay type: cell-based; conditions: 10 μM or higher, six hours before infection, m.o.i. 50, 20 hours
Description: After that, the cells were washed with the DMEM containing 5% of fetal bovine serum, then the DMEM containing 5% of fetal bovine serum which contained Ad5 dlX [an adenovirus; Saito, etal.; Journal ofVirology, volume 54, pages 711-719 (1985)] was added to the cells so that the cells were infected therewith and incubation was conducted for 20 hours. […] The medium was discarded, 1 ml of 10% trichloroacetic acid was added to each of the wells and the cells were recovered by a scraper.
Then SDS-PAGE and blotting of the treated cells obtained hereinabove were conducted by the method of Example 1 to detect the expression of hexon proteins of the adenovirus. Incidentally, anti-adenovirus hexon antibody (AB 1056; manufactured by Chemicon International Inc.) was used as the primary antibody.

Ad5 dlX [an adenovirus] [2] = test: Amount of viral DNA in HeLa cells treated before infection with adenovirus; assay type: cell-based; conditions: 5 μM or more
Description: (3) Viral DNA was extracted according to a method mentioned in “Protocols for Experiments of Virus” (pages 24-25; published by Medical View) from the HeLa cells which were treated with the cyclopentenone and infected by adenovirus followed by incubation by the same manner as in Example 2-(2).
Thus, cells infected by virus were washed with a saline solution buffered by phosphoric acid, suspended in 1 ml of aqueous solution of 0.6% sodium laurylsulfate (SDS) and 10 mM EDTA and 3.0 ml of 5M aqueous solution of sodium chloride was added thereto. The mixture was allowed to stand at 0° C. for one hour and centrifuged and 3 ml of ethanol was added to the resulting supernatant liquid followed by mixing. The precipitate obtained by centrifugal separation was dissolved in 0.2 ml of TE buffer (10 mM Tris-HCl of pH 8.0 and 1 mM EDTA), then 2 μl of 10% SDS and 4 μl of 10 mg/ml proteinase K (manufactured by Takara Shuzo) were added thereto and the mixture was kept at 37° C. for one hours. This was extracted with a mixture of equal amounts of phenol and chloroform twice, 20 μl of 3M sodium acetate and 400 μl of ethanol were added to the aqueous layer, the mixture was centrifuged and the precipitate was dissolved in 50 μl of the TE buffer to give a DNA solution. […]

[3] = system: heat shock protein of 70 kDa; test: Induction of heat shock protein of 70 kDa in HL-60 cells (SDS-PAGE and blotting); assay type: cell-based, human; set-up: key to Induction of Heat Shock Proteins: +++: “+” indicates degree of intensity of induction and the more the numbers of “+”, the more the intensity of induction; ++: “+” indicates degree of intensity of induction and the more the numbers of “+”, the more the intensity of induction; “+” indicates degree of intensity of induction and the more the numbers of “+”, the more the intensity of induction; “±” means the induction was slight; “−” means that no induction was noted; conditions: for Induction of Heat Shock Proteins: HL-60 cells, eight hours
Description: (1) An RPMI 1640 medium (5 ml) containing 10% of fetal bovine serum which contained 2×10^5 cells/ml of human promyelocytic leukemia cells HL-60 (ATCC CCL-240) was placed in each well of a six-well plate, incubated at 37° C. for 24 hours in the presence of 5% of CO2, then the cyclopentenone described in the referential example L was added thereto to make its final concentration 0, 10, 20, 30, 40, 50, or 100 μM and the incubation was further continued for eight hours more.
After completion of the incubation, cell numbers were counted and the cells were recovered by centrifugation and washed with phosphate-buffered saline (PBS) to prepare cyclopentenone-treated cells. In the meanwhile, cells which were heated at 45° C. for ten minutes followed by subjecting to the same incubation were prepared as well.
The cells treated as such were subjected to an SDS-polyacrylamid gel electrophoresis (SDS-PAGE) by a method mentioned in “Molecular Cloning” [Cold Spring Harbor Laboratory Press, (1989)]. The treated cells were suspended in an SDS-PAGE sample buffer to make the concentration 2.5×10^6 cells/ml, the resulting cell suspension was treated at 100° C. for ten minutes and each 5 μl thereof was applied to two sheets of SDS-PAGE gels (5% stacking gel; 10% separation gel) to conduct anelectrophoresis. One of the gels was Coomassie stained while another gel was subjected to a blotting to a polyvinylidene difluoride transfer membrane (Immobilon™, manufactured by Millipore, catalog no. IPVH000-10). The membrane was subjected to a blocking at 4° C. for one night with Block Ace (manufactured by Dainippon Pharmaceutical; catalog no. UK-B25).
The blocked membrane was made to react with monoclonal antibody HSP 72/73 (Ab-1) (manufactured by Oncogene Research Products, catalog no. HSP01) which would specifically react with heat-induced heat shock protein of 70 kDa and washed with TBS containing 0.05% of Tween 20 followed by further washing with TBS. After that, it was made to react with peroxidase-compounded secondary antibody HRP-Rabbit Anti-Mouse IgG (H+L) (manufactured by Zymed Laboratories, catalog no. 61-6520) and washed by the same manner as in the above operation. The membranes which were treated with primary and secondary antibodies as such were made to react with Renaissance™ (a chemiluminor reagent manufactured by Dupont NEN, catalog no. NEL-100) and photosensitized with an X-ray film to confirm the induction of heat shock protein of 70 kDa.
The result was that, by addition of cyclopentenone (20 to 30 μM), induction of heat shock protein of 70 kDa which is almost same as heat-treated at 45° C. for 10 minutes was confirmed. In Table 1, “+” indicates degree of intensity of induction and the more the numbers of “+”, the more the intensity of induction. Incidentally, “−” means that no induction was noted and “±” means the induction was slight.

NIH3T3/Y-1 = test: Colony formation of control-vector cell strain NIH3T3/Y-1; conditions: 5 μM, nine days, NIH3T3/Y-1, three runs
NIH3T3 cells = test: Colony formation of NIH3T3 cells; conditions: 5 μM, nine days, NIH3T3, three runs
[4] = system: adenovirus of type 5 (Adenoid 75; ATCC VR-5); test: Adenovirus hexon protein in HeLa cells, cyclopentenone added after infection; assay type: cell-based; conditions: 10 μM or more, 20 hours
Description: (4) After HeLa cells were incubated by the same manner as in Example 2-(2), DMEM containing 5% of fetal bovine serum which contained adenovirus of type 5 (Adenoid 75; ATCC VR-5) was added to the cells without addition of the cyclopentenone whereby the cells were infected by that. […] After the incubation, detection of hexon proteins of adenovirus was conducted by the same manner as in Example 2-(2).

O=C1C=CC(O)C1O (centres unmarked) [cyclopentenone, 4,5-dihydroxy-2-cyclopenten-1-one]
amount of the hexon protein compared with the control (Ad5 dlX [an adenovirus] [1]): apparently decreased | amount of viral DNA compared with the control (Ad5 dlX [an adenovirus] [2]): apparent decrease | concentration at which the ability for inducing HSP70 becomes maximum [3]: 20 to 30 µM | concentration at which the ability for inducing HSP70 is noted [3]: 10 µM | Induction of Heat Shock Proteins ([3]; 10 μM): + | Induction of Heat Shock Proteins ([3]; 20 μM): +++ | Induction of Heat Shock Proteins ([3]; 30 μM): +++ | Induction of Heat Shock Proteins ([3]; 40 μM): ++ | Induction of Heat Shock Proteins ([3]; 50 μM): + | Induction of Heat Shock Proteins ([3]; 100 μM): ± | ability inducing the HSP70 compared with prostaglandin A1 ([3]; compared in molar concentration): equivalent | Numbers (average ± SD) of the Colonies (NIH3T3/Y-1): 71.3 ± 2.3 | Numbers (average ± SD) of the Colonies (NIH3T3 cells): 85.3 ± 4.0 | amount of hexon proteins compared with the control [4]: apparent decrease
